Source: US4877893A, “Process for the preparation of 2-(O-alkyl)-2-thio-1,3,2-oxathiophospholanes” (priority 1987, dated 1989)

Key:
Assay in all cases: Fungicidal effect on infected agar nutrient media, colony diameter
Assay type in all cases: cell-based
Penicillium cyclopium = conditions: 7th day after treatment, untreated 26.5
Summary of the method: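 Agar media (70 mm diameter, 10 mm thick) infected with Penicillium cyclopium were treated with EC formulations at 1, 10, 100 and 1000 ppm active ingredient. Fungal colony diameter was measured on day 7 after treatment.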

Alternaria tenuis = conditions: 5th day after treatment, untreated control 36.8
Summary of the method: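 Agar media (70 mm diameter, 10 mm thick) infected with Alternaria tenuis, treated with EC formulations at 1, 10, 100 and 1000 ppm active ingredient. Fungicidal effect read on day 5 after treatment as fungal colony diameter.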

Sclerotinia sclerotinia = conditions: 3rd day after treatment, untreated control 41.7
Procedure: Agar nutrient media (Diameter 70 MM, thickness 10 mm) infected by Sclerotonia sclerotinia suspension are treated with 20 EC formulations prepared according to Example 27 and comprising 1, 10, 100 and 1000 ppm, respectively of the active ingredient of the Formula I. The fungicidal effect of the compositions is evaluated on the 3rd day after treatment by measuring the diameter of the Fungi colonies.

Structure (SMILES) | Diameter of colony (mm) (Penicillium cyclopium; 1 ppm) | Diameter of colony (mm) (Penicillium cyclopium; 10 ppm) | Diameter of colony (mm) (Penicillium cyclopium; 100 ppm) | Diameter of colony (mm) (Penicillium cyclopium; 1000 ppm) | Diameter of colony (mm) (Alternaria tenuis; 1 ppm) | Diameter of colony (mm) (Alternaria tenuis; 10 ppm) | Diameter of colony (mm) (Alternaria tenuis; 100 ppm) | Diameter of colony (mm) (Alternaria tenuis; 1000 ppm) | Diameter of colony (mm) (Sclerotinia sclerotinia; 1 ppm) | Diameter of colony (mm) (Sclerotinia sclerotinia; 10 ppm) | Diameter of colony (mm) (Sclerotinia sclerotinia; 100 ppm) | Diameter of colony (mm) (Sclerotinia sclerotinia; 1000 ppm)
CCC(C)OP1(=S)OC(C)C(C)S1 (stereo not drawn) [Compound 53, 2-(0-1'-methyl-n-propyl)-2-thio-4,5-dimethyl1,3,2-oxathiophospholane] | 24.8 mm | 19.2 mm | 7.6 mm | 0 mm | 33.9 mm | 25.4 mm | 6.6 mm | 0 mm | 35.8 mm | 30.0 mm | 3.8 mm | 0 mm
CC(C)C(C)OP1(=S)OC(C)C(C)S1 (stereo not drawn) [Compound 54, 2-(0-1',2'-dimethyl-n-propyl)-2-thio-4,5-dimethyl1,3,2-oxathiophospholane] | 25.2 mm | 18.8 mm | 7.9 mm | 0 mm | 34.7 mm | 24.6 mm | 7.2 mm | 0 mm | 34.9 mm | 29.0 mm | 4.1 mm | 0 mm
CCOP1(=S)OCCS1 (stereo not drawn) [Compound 55] | 21.9 mm | 18.1 mm | 8.0 mm | 0 mm | 32.4 mm | 23.5 mm | 5.2 mm | 0 mm | 33.1 mm | 28.2 mm | 0 mm | 0 mm
S=P1(OCCS)OCCS1 (stereo not drawn) [Compound 56] | 24.6 mm | 18.1 mm | 8.8 mm | 0 mm | 32.8 mm | 22.1 mm | 6.0 mm | 0 mm | 40.2 mm | 31.5 mm | 1.2 mm | 0 mm
CC(C)OP1(=S)OCCS1 (stereo not drawn) [Compound 57] | 18.7 mm | 20.0 mm | 6.2 mm | 0 mm | 31.7 mm | 26.0 mm | 7.1 mm | 0 mm | 37.8 mm | 25.9 mm | 0 mm | 0 mm
CCCCOP1(=S)OCCS1 (stereo not drawn) [Compound 58] | 21.9 mm | 16.1 mm | 8.4 mm | 0 mm | 32.7 mm | 23.9 mm | 7.5 mm | 0 mm | 36.2 mm | 29.1 mm | 1.9 mm | 0 mm
CCCCOP1(=S)OCCS1 (stereo not drawn) [Compound 59, 2-(0-n-butyl)-2-thio-1,3,2-oxathiophospholane] | 25.0 mm | 18.7 mm | 7.6 mm | 0 mm | 34.0 mm | 24.1 mm | 5.6 mm | 0 mm | 34.3 mm | 28.5 mm | 4.0 mm | 0 mm
